Some test systems named below: HCT-15 colon; U251 CNS; OVCAR-5 ovarian; SK-MEL-2 melanoma; EKVX NSCLC; MCF7 breast; SN12C renal; KM12 colon; UACC-62 melanoma; M14 melanoma; ACHN renal.
Common to all, as to assay: NCI tumour cell line growth inhibition, 48 h

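The compound was tested at five concentrations on cells cultured in 96-well plates, with a 48-hour exposure period. The concentration for full growth arrest is given as TGI.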

For `COc1ccc(S(=O)(=O)n2c3c(c4ccccc42)[C@@H]2[C@@H](CCCN2C(=O)CS(=O)c2ccc(C)cc2)[C@H](Cl)C3)cc1` (stereo partly specified), the TGI in the test with HCT-15 colon, with U251 CNS, with OVCAR-5 ovarian, in the test on SK-MEL-2 melanoma, in the test with EKVX NSCLC and in the test on MCF7 breast was > 100 µM in each case. In addition, the TGI in the test with SN12C renal, in the test on KM12 colon, with UACC-62 melanoma and with M14 melanoma was > 100 µM throughout.

`O=C(O)Cc1ccc([N+](=O)[O-])cc1[N+](=O)[O-]`: the TGI in the test on HCT-15 colon, in the test on U251 CNS, with OVCAR-5 ovarian, in the test on SK-MEL-2 melanoma, in the test on EKVX NSCLC and in the test with MCF7 breast was > 100 µM each time. Further, the TGI in the test on ACHN renal, in the test on SN12C renal, in the test with KM12 colon, in the test with UACC-62 melanoma and with M14 melanoma was > 100 µM in each case.

Regarding `O=C1/C(=C\c2ccc(Cl)cc2Cl)Sc2scc(-c3ccc(O)c(O)c3)[n+]21`, the TGI is 30.1 µM with HCT-15 colon; 25.5 µM with U251 CNS; 46.3 µM in the test on OVCAR-5 ovarian; 35.5 µM in the test with SK-MEL-2 melanoma; 49 µM in the test on EKVX NSCLC; 73.2 µM with MCF7 breast. Also, the TGI in the test with ACHN renal was 46.3 µM; in the test on SN12C renal it was 30.3 µM; with KM12 colon, 33.9 µM; in the test on UACC-62 melanoma, 22.4 µM; in the test with M14 melanoma it was 40.6 µM.

For the compound `Cc1ccc(C(=O)OC(C(=O)O)C(OC(=O)c2ccc(C)cc2)C(=O)O)cc1` (stereo unspecified) (tested in a mixture with another compound), the TGI in the test on HCT-15 colon is 17.6 µM; in the test with U251 CNS, 22.2 µM; in the test on OVCAR-5 ovarian, 24.6 µM; in the test with SK-MEL-2 melanoma it was 23.5 µM; in the test with EKVX NSCLC, 26.6 µM; with MCF7 breast it was 11.8 µM. The TGI is 32 µM with SN12C renal, 19 µM in the test on KM12 colon and 19.3 µM in the test on UACC-62 melanoma.

As to `O=C(C(=O)n1ccc2ccccc21)n1ccc2ccccc21`, the TGI in the test on HCT-15 colon, in the test with U251 CNS, in the test with OVCAR-5 ovarian, in the test with SK-MEL-2 melanoma, in the test with EKVX NSCLC and with MCF7 breast was > 100 µM in each case. Moreover, the TGI in the test with ACHN renal, in the test with SN12C renal and with UACC-62 melanoma was > 100 µM in each case.

On to `CC(N)/C(N)=N/O` (stereo unspecified), for which the TGI in the test with HCT-15 colon, in the test on U251 CNS, with OVCAR-5 ovarian, with SK-MEL-2 melanoma, in the test with EKVX NSCLC and with MCF7 breast was > 100 µM throughout. Moreover, the TGI in the test with ACHN renal, in the test on SN12C renal, in the test on KM12 colon, in the test on UACC-62 melanoma and in the test on M14 melanoma was > 100 µM throughout.

Consider `COc1ccc(C(SCCO)(c2ccccc2)c2ccc(OC)cc2)cc1`, for which the TGI worked out at 30.3 µM in the test on HCT-15 colon; 14.8 µM in the test with U251 CNS; 31.6 µM in the test on OVCAR-5 ovarian; 25.8 µM in the test on SK-MEL-2 melanoma; 29.7 µM with EKVX NSCLC; 18.5 µM in the test on MCF7 breast. Moreover, the TGI was determined as 29.6 µM in the test on ACHN renal; 30.5 µM in the test with SN12C renal; 21.5 µM in the test on KM12 colon; 24.8 µM with UACC-62 melanoma; 23.1 µM in the test on M14 melanoma.

With `C[C@]12c3c4cc(NC(=O)C(=O)NCc5ccc(-c6ccccn6)nc5)cc3Oc3cc(NC(=O)C(=O)NCc5ccc(-c6ccccn6)nc5)cc(c31)OC1C=C(NC(=O)C(=O)NCc3ccc(-c5ccccn5)nc3)C=C(O4)C12` (stereo partly specified), the TGI is > 100 µM in the test with HCT-15 colon; > 100 µM in the test with U251 CNS; > 100 µM with OVCAR-5 ovarian; > 100 µM with SK-MEL-2 melanoma; 62.4 µM with EKVX NSCLC; > 100 µM in the test on MCF7 breast. For the same compound, the TGI in the test on ACHN renal is 59.2 µM; with SN12C renal, > 100 µM; in the test on KM12 colon, > 100 µM; in the test with UACC-62 melanoma, 79.1 µM; with M14 melanoma, > 100 µM.

Take `C=C1C(=O)O[C@@H]2/C=C(C)/C=C\[C@@H]3O[C@@]3(C)C[C@@H](O)C12` (stereo partly specified): the TGI in the test with HCT-15 colon was 27.6 µM; in the test with U251 CNS, 34.6 µM; with OVCAR-5 ovarian it was 85.4 µM; in the test on SK-MEL-2 melanoma, > 100 µM; in the test with EKVX NSCLC, 20.2 µM; in the test on MCF7 breast, 26.4 µM. The TGI was determined as 18.3 µM in the test with ACHN renal; 30.4 µM with SN12C renal; 31.8 µM with KM12 colon; 27.2 µM with UACC-62 melanoma; 49.2 µM in the test on M14 melanoma.

For the compound `O=S(=O)(O)c1cc(N=Nc2c(O)ccc3ccccc23)cc2c(S(=O)(=O)O)cccc12`, the TGI in the test with HCT-15 colon, in the test on U251 CNS, in the test with OVCAR-5 ovarian, with SK-MEL-2 melanoma, with EKVX NSCLC and with MCF7 breast was > 100 µM in each case. Further, the TGI with ACHN renal, with KM12 colon, in the test with UACC-62 melanoma and in the test on M14 melanoma was > 100 µM throughout.

For the compound `CCOC(=O)c1cn2c(n1)sc1cc(F)ccc12`, the TGI in the test on HCT-15 colon, with U251 CNS, in the test with OVCAR-5 ovarian, with SK-MEL-2 melanoma, in the test on EKVX NSCLC and in the test with MCF7 breast was > 100 µM each time. Besides, the TGI in the test with ACHN renal, with SN12C renal, in the test on KM12 colon, in the test with UACC-62 melanoma and in the test with M14 melanoma was > 100 µM in each case.

As for `Cc1[nH]c(=O)nc2sc(=NC3CCCCC3)n(C3CCCCC3)c(=O)c12`, the TGI with HCT-15 colon, in the test with U251 CNS, in the test on OVCAR-5 ovarian, with SK-MEL-2 melanoma, with EKVX NSCLC and with MCF7 breast was > 100 µM each time. For the same compound, the TGI in the test with ACHN renal, with SN12C renal, in the test with KM12 colon, with UACC-62 melanoma and in the test with M14 melanoma was > 100 µM throughout.

Values taken from PubChem BioAssay (NCI).
